Data published in the NIST ThermoML archive (doi:10.1016/j.jct.2012.07.018).
± gives the expanded uncertainty stated by the source.

Tests used:
[1] = molar heat capacity at constant pressure; conditions: Liquid, Flow calorimetry
[2] = molar heat capacity at constant pressure; xn = mol fraction of the nth substance listed; conditions: 313.15 K, Liquid, Flow calorimetry

C1CCCCC1 [cyclohexane]
molar heat capacity at constant pressure [J/K/mol], [1]
Conditions	100 kPa	5000 kPa	10000 kPa	15000 kPa	20000 kPa
293.15 K	154.1 ± 1.6	152 ± 1.5	151.1 ± 1.5	149.9 ± 1.5	148.7 ± 1.5
313.15 K	162.7 ± 1.6	160.7 ± 1.6	158.8 ± 1.6	157.3 ± 1.6	155.9 ± 1.6
333.15 K	171 ± 1.7	169.1 ± 1.7	166.8 ± 1.7	164.9 ± 1.7	163.4 ± 1.7

C1CCCCC1 [cyclohexane] + CCO
molar heat capacity at constant pressure [J/K/mol], [2]
Conditions	x1 = 0.1	x1 = 0.1999	x1 = 0.2999	x1 = 0.4	x1 = 0.5002	x1 = 0.6	x1 = 0.7002	x1 = 0.8	x1 = 0.8999	x1 = 1
100 kPa	127.8 ± 1.3	134.2 ± 1.4	140.2 ± 1.4	146.9 ± 1.5	152.7 ± 1.5	158.2 ± 1.6	163.3 ± 1.7	167.6 ± 1.7	169.9 ± 1.7	162.7 ± 1.6
5000 kPa	126.5 ± 1.3	132.9 ± 1.3	138.8 ± 1.4	145.2 ± 1.5	151 ± 1.5	155.9 ± 1.6	161 ± 1.6	165.2 ± 1.7	167.3 ± 1.7	160.7 ± 1.6
10000 kPa	125 ± 1.3	131 ± 1.3	137.1 ± 1.4	143.1 ± 1.4	149 ± 1.5	154 ± 1.6	159 ± 1.6	163.1 ± 1.6	165.5 ± 1.7	158.8 ± 1.6
15000 kPa	123.7 ± 1.3	130.2 ± 1.3	135.7 ± 1.4	141.3 ± 1.4	147 ± 1.5	152.9 ± 1.5	157.6 ± 1.6	161.3 ± 1.6	163.3 ± 1.7	157.3 ± 1.6
20000 kPa	122.8 ± 1.2	129.5 ± 1.3	134.9 ± 1.4	140.7 ± 1.4	146.6 ± 1.5	149 ± 1.5	156.3 ± 1.6	160.5 ± 1.6	162.5 ± 1.6	155.9 ± 1.6

CCO [ethanol] + C=CCCCC
[2], x2 = 0
Conditions	molar heat capacity at constant pressure [J/K/mol]
100 kPa	119.2 ± 1.2
5000 kPa	118 ± 1.2
10000 kPa	116.8 ± 1.2
15000 kPa	115.5 ± 1.2
20000 kPa	114.9 ± 1.2

CCO [ethanol]
[1], 313.15 K
Conditions	molar heat capacity at constant pressure [J/K/mol]
100 kPa	119.2 ± 1.2
5000 kPa	118 ± 1.2
10000 kPa	116.8 ± 1.2
15000 kPa	115.5 ± 1.2
20000 kPa	114.9 ± 1.2

C=CCCCC [hex-1-ene]
molar heat capacity at constant pressure [J/K/mol], [1]
Conditions	100 kPa	5000 kPa	10000 kPa	15000 kPa	20000 kPa
273.15 K	177.2 ± 1.8	170.8 ± 1.7	168.3 ± 1.7	166.3 ± 1.7	165.3 ± 1.7
293.15 K	184.8 ± 1.9	178.6 ± 1.8	175.1 ± 1.8	172.6 ± 1.7	172.1 ± 1.7
313.15 K	190.7 ± 1.9	186.6 ± 1.9	182.9 ± 1.8	180.4 ± 1.8	178.2 ± 1.8

C=CCCCC [hex-1-ene] + CCO
molar heat capacity at constant pressure [J/K/mol], [2]
Conditions	x1 = 0.0999	x1 = 0.2	x1 = 0.3	x1 = 0.3998	x1 = 0.4998	x1 = 0.6	x1 = 0.7001	x1 = 0.8003	x1 = 0.9003	x1 = 1
100 kPa	130.7 ± 1.3	142 ± 1.4	152 ± 1.5	161.5 ± 1.6	171.8 ± 1.7	–	186.4 ± 1.9	192.3 ± 1.9	197 ± 2	190.7 ± 1.9
5000 kPa	129 ± 1.3	139.8 ± 1.4	149.7 ± 1.5	158.9 ± 1.6	167.9 ± 1.7	175.4 ± 1.8	182.2 ± 1.8	188.7 ± 1.9	191.2 ± 1.9	186.6 ± 1.9
10000 kPa	127.3 ± 1.3	138 ± 1.4	147.2 ± 1.5	156.2 ± 1.6	165.1 ± 1.7	172.6 ± 1.7	179 ± 1.8	184.7 ± 1.9	188.5 ± 1.9	182.9 ± 1.8
15000 kPa	126 ± 1.3	136.6 ± 1.4	145.7 ± 1.5	153.7 ± 1.6	163.1 ± 1.6	170.2 ± 1.7	176.3 ± 1.8	181.6 ± 1.8	185.1 ± 1.9	180.4 ± 1.8
20000 kPa	125 ± 1.3	135.4 ± 1.4	144.3 ± 1.5	152.9 ± 1.5	161.4 ± 1.6	168.4 ± 1.7	174.7 ± 1.8	178.5 ± 1.8	183.4 ± 1.9	178.2 ± 1.8

C1CCCCC1 [cyclohexane] + C=CCCCC
[2], x1 = 1
Conditions	molar heat capacity at constant pressure [J/K/mol]
100 kPa	162.7 ± 1.6
5000 kPa	160.7 ± 1.6
10000 kPa	158.8 ± 1.6
15000 kPa	157.3 ± 1.6
20000 kPa	155.9 ± 1.6

C=CCCCC [hex-1-ene] + C1CCCCC1
molar heat capacity at constant pressure [J/K/mol], [2]
Conditions	x2 = 0	x2 = 0.1	x2 = 0.2	x2 = 0.2999	x2 = 0.4001	x2 = 0.5	x2 = 0.6001	x2 = 0.7	x2 = 0.8	x2 = 0.9
100 kPa	190.7 ± 1.9	187.6 ± 1.9	184.3 ± 1.9	181.3 ± 1.8	178 ± 1.8	175.2 ± 1.8	172.5 ± 1.7	169.7 ± 1.7	167.2 ± 1.7	165.1 ± 1.7
5000 kPa	186.6 ± 1.9	181.3 ± 1.8	180.5 ± 1.8	176.8 ± 1.8	174.2 ± 1.8	171.6 ± 1.7	169.6 ± 1.7	167.3 ± 1.7	163.8 ± 1.7	162.2 ± 1.6
10000 kPa	182.9 ± 1.8	179.7 ± 1.8	176.9 ± 1.8	173.9 ± 1.8	172.2 ± 1.7	169.1 ± 1.7	167 ± 1.7	164.9 ± 1.7	162.3 ± 1.6	160 ± 1.6
15000 kPa	180.4 ± 1.8	177.2 ± 1.8	174.8 ± 1.8	171.7 ± 1.7	169.9 ± 1.7	167.6 ± 1.7	165.4 ± 1.7	163.3 ± 1.7	160.2 ± 1.6	158.1 ± 1.6
20000 kPa	178.2 ± 1.8	175.4 ± 1.8	173.5 ± 1.8	170.8 ± 1.7	168.6 ± 1.7	166.2 ± 1.7	163.9 ± 1.7	162.1 ± 1.6	159.6 ± 1.6	157.9 ± 1.6

CCO [ethanol] + C1CCCCC1
[2], x2 = 0
Conditions	molar heat capacity at constant pressure [J/K/mol]
100 kPa	119.2 ± 1.2
5000 kPa	118 ± 1.2
10000 kPa	116.8 ± 1.2
15000 kPa	115.5 ± 1.2
20000 kPa	114.9 ± 1.2
